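Compound exposure: 48 hours, 5 concentrations, 96-well plates. TGI is the concentration that stops growth completely.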
Tests used:
Assay in all cases: inhibition of tumour cell growth, NCI panel, 48 h
[1] = system: OVCAR-5 ovarian
[2] = system: U251 CNS
[3] = system: COLO 205 colon
[4] = system: RXF 393 renal
[5] = system: EKVX NSCLC
[6] = system: NCI-H522 lung
[7] = system: RPMI-8226 leukemia
[8] = system: LOX IMVI melanoma
[9] = system: SNB-19 CNS
[10] = system: HL-60(TB) leukemia

| SMILES | TGI [1] [µM] | TGI [2] [µM] | TGI [3] [µM] | TGI [4] [µM] | TGI [5] [µM] | TGI [6] [µM] | TGI [7] [µM] | TGI [8] [µM] | TGI [9] [µM] | TGI [10] [µM] |
| --- | --- | --- | --- | --- | --- | --- | --- | --- | --- | --- |
| CCOc1nc(-c2ccccc2)cc(-c2ccc(N3CCOCC3)cc2)c1C#N | > 100 | > 100 | > 100 | > 100 | > 100 | > 100 | > 100 | > 100 | > 100 | > 100 |
| CC(C)c1ccc(/C=C2\CSCC3=C2NC(=S)NC3c2ccc(C(C)C)cc2)cc1 (stereo not given) | > 100 | > 100 | > 100 | > 100 | > 100 | > 100 | > 100 | > 100 | > 100 | > 100 |
| COc1cccc(N(CN2CC=CC2=O)C(C)=O)c1 | > 100 | > 100 | > 100 | > 100 | > 100 | > 100 | > 100 | > 100 | > 100 | > 100 |
| CCOC(=O)/C=C(/C(=O)OCC)n1cc(C)c(=O)n(Cc2cn(COCCOC(C)=O)nn2)c1=O | 65 | > 73.8 | > 55.2 | > 70 | 31.3 | 6.9 | 57.7 | 47.8 | > 92.5 | 84 |

From PubChem BioAssay (NCI)
